From patent US20260217712A1, “SOLID STATE FORMS OF MNK INHIBITORS” (4E Therapeutics, Inc., priority 2023, published 2026)
In brackets after ≈: the same amount, converted by molar mass. Read-outs that look alike come from different tables or passages of the source.

Columns and labels:
Assay type in all cases: physicochemical
[1] = Drying / standing under ambient conditions, XRPD; conditions: ambient conditions
Procedure: Structure (I) (Sample 28-2, 30 mg, Poorly Crystalline Pattern 3) was wetted with solvent (300 μL, 10 vol) according to Table 30 and put into a shaker at 50° C. for 6 days. The suspensions were isolated using filter cartridges and positive pressure. A XRPD pattern was collected for each sample. […] This characterization is presented and discussed in Examples detailed herein. (see, e.g., FIG. 75)

XRPD under vacuum = conditions: vacuum released for 30 min, ambient conditions
Text: (§1) XRPD diffractograms were collected on a PANalytical Empyrean diffractometer using Cu Kα radiation (45 kV, 40 mA, λ=1.544398 Å) in reflection geometry. The instrument was fitted with an Anton Paar CHC plus+ stage fitted with graphite/Kapton windows and equipped with air cooling coupled or a low vacuum pump system using an Edwards RV3 pump. A programmable divergence slit (in automatic mode), with a 10 mm fixed incident beam mask, Ni filter and 0.04 rad Soller slits were used on the incident beam. A PIXcel3D detector, placed on the diffracted beam, was fitted with a programmable anti-scatter slit (in automatic mode) and 0.04 rad Soller slits.
For XRPD under vacuum the samples were prepared and analyzed in an Anton Paar chromed sample holder. The sample temperature was kept constant throughout at 25° C. The measurement parameters are as per the standard screening data collection method (detailed above). An initial measurement was taken before the vacuum was initiated and then subsequently at 10 min intervals. Data collection was stopped after three consecutive scans showing no change.

[2] = Variable temperature XRPD (VT-XRPD); conditions: 250° C.
Text: as §1
For variable temperature (VT-XRPD) experiments the samples were prepared and analyzed in an Anton Paar chromed sample holder. The sample chamber was under ambient atmosphere and a heating/cooling rate of 10° C./min was used with a 2 min isothermal hold before the measurement started. The measurement parameters are as per the standard screening data collection method (detailed above). Measurements were taken at the following temperatures: 25, 80, 170, 250, and 25° C.

[3] = Gravimetric solubility measurements from competitive slurry samples; conditions: organic solvent or mixture, thermodynamic from solid, room temperature
Text: In order to determine that Pattern 3 was not simply being dissolved in the solvent systems when the solid was introduced, gravimetric solubility measurements were made using the samples at room temperature. […] There was insufficient solubility at room temperature to dissolve the Pattern 3 present in the competitive slurry experiments.

[4] = Competitive slurries of Pattern 3 and Pattern 11, XRPD; conditions: competitive slurry, solvent and temperature per sample; for XRPD after 7 days: 20 vol
Procedure: A solid mixture of Structure (I) Pattern 3 (from Lot B, 300 mg) and Pattern 11 (Sample 35-1, 300 mg) was mixed for 3 hours using a turbula mixer.
The solid mixture (30 mg) was suspended in solvent (dried with molecular sieves, 600 μL, 20 vol) and either stirred in the fridge, shaken at RT or 55° C. After 7 days, an aliquot of each suspension was analyzed by XRPD. Samples that were still a mixture of forms were placed back into fridge/shakers for a further 10 days and re-analyzed (results shown in Table 36).
Competitive slurry experiments at 55° C., along with one at 5° C., were repeated using a saturated solution as the solvent mixture to minimize dissolution that may have occurred at temperatures other than room temperature.
A saturated solution of THF/Water (9:1) (5 mL) with Structure (I) (from Lot B) was equilibrated at 55° C. overnight in a shaker. The solution was filtered using 0.45 μm nylon filter before use.
A solid mixture of Pattern 3 and Pattern 11 (30 mg) was suspended in the saturated solution (600 μL, 20 vol) and either stirred in the fridge (5° C.) or shaken at 55° C. After 1 day, aliquots of the suspensions were analyzed by XRPD. Both samples were placed back into fridge/shaker. After a total of 11 days, the samples were removed from fridge/shaker. Sample 38-2 was filtered before XRPD, Sample 38-1 was pipetted onto the XRPD holder and allowed to dry before analysis (solid passed through filter).

pKa measurements = experiment: pKa measurements
[5] = Slurry in pH 2.0 buffer, XRPD; conditions: pH 2.0 chloride buffer, RT, 5 days
Procedure: Structure (I) (from Lot B, 30 mg) was suspended in pH 2.0 buffer (chloride buffer, 3 mL) and placed in a shaker at RT. After 1 day, the sample was filtered and analyzed by XRPD. The sample was re-suspended in pH 2.0 buffer (2 mL) and returned to shaking at RT for 4 days. The sample was aliquoted and analyzed by XRPD, before filtration and drying under suction.

[6] = Heating for 24 h in a vacuum tray dryer, XRPD and HPLC
Procedure: A polymorphism study of Structure (I) was performed at 75° C., 100° C., 175° C., and 250° C. About 500 mg of Structure (I) Pattern 3 was heated at 75° C. for 24 h in a vacuum tray dryer (VTD) under reduced pressure. Obtained material after heating at 75° C. was analyzed for purity by HPLC and XPRD analysis. […] Additionally, about 500 mg of Structure (I) was heated at 75° C. for 24 h in a VTD under reduced pressure. After 24 h, material was cooled to 25-30° C. under inert atmosphere and analyzed for purity by HPLC and XRPD.
About 500 mg of Structure (I) was heated at 100° C. for 24 h in a VTD under reduced pressure. Obtained material after heating at 100° C. was analyzed for purity by HPLC and XPRD. […] Additionally, about 500 mg of Structure (I) was heated at 100° C. for 24 h in a VTD under reduced pressure. After 24 h material was cooled to 25-30° C. under inert atmosphere. Obtained material was analyzed for purity by HPLC and XPRD.
Obtained material after heating at 175° C. was analyzed for purity by HPLC and XPRD. […] After 24 h, material was cooled to 25-30° C. under inert atmosphere. Obtained material was analyzed for purity by HPLC and XPRD.
About 500 mg of Structure (I) was heated at 250° C. for 24 h in a VTD. Obtained material after heating at 250° C. was analyzed for purity by HPLC and XPRD.

For `Cc1cc(Nc2cc(N)ncn2)c(=O)n2c1C(=O)NC21CCC2(CC2)CC1` [Pattern 10], the “form under ambient conditions (XRPD after ambient overnight)” value [1] was “converted back to Pattern 3”, the “XRPD after vacuum released” value (XRPD under vacuum) was “converted back to Pattern 3” and the “VT-XRPD form at 250° C.” value [2] was “partially converted to Pattern 11”.
For `Cc1cc(Nc2cc(N)ncn2)c(=O)n2c1C(=O)NC21CCC2(CC2)CC1` [Pattern 36-9], the solubility ([3]; IPA/Water (95:5)) was 3800 µg/mL (≈ 10.4 mM), the “XRPD after 7 days” value [4] was “Patterns 3 and 11” and the “XRPD after 17 days” value [4] was “Patterns 3 and 11”.
In the case of `Cc1cc(Nc2cc(N)ncn2)c(=O)n2c1C(=O)NC21CCC2(CC2)CC1` [Structure (I), 6″-((6-aminopyrimidin-4-yl)amino)-8″-methyl-2″H-dispiro[cyclopropane-1, l′-cyclohexane-4′,3″-imidazo[1,5-a]pyridine]-1″,5″-dione], the pKa (pKa measurements; read-out: acidic pKa (acidic center)) is reported as 11.5, the pKa (pKa measurements; read-out: basic pKa) is reported as 4.73 and the “XRPD form after slurry in pH 2.0 buffer” value [5] is reported as “Pattern 1”. The “HPLC purity change after heating at 100° C.” value ([6]; 100° C., reduced pressure) was “no change”, the “XRPD form after heating at 100° C.” value ([6]; 100° C., reduced pressure) was “remained as Pattern 3” and the “HPLC purity change after heating at 175° C.” value ([6]; 175° C., reduced pressure) was “no change”. The “XRPD form after heating at 175° C.” value ([6]; 175° C., reduced pressure) was “converted to Pattern 11” and the “XRPD form after heating at 250° C.” value ([6]; 250° C.) was “converted to Pattern 11”.
For `Cc1cc(Nc2cc(N)ncn2)c(=O)n2c1C(=O)NC21CCC2(CC2)CC1` [Pattern 36-10], the solubility ([3]; THF/Water (9:1)) was 8100 µg/mL (≈ 22.1 mM), the “XRPD after 7 days” value [4] was “Patterns 3 and 11” and the “XRPD after 17 days” value [4] was “Patterns 3 and 11”.
For `Cc1cc(Nc2cc(N)ncn2)c(=O)n2c1C(=O)NC21CCC2(CC2)CC1` [Pattern 36-8], the solubility ([3]; Toluene) was 2300 µg/mL (≈ 6.28 mM), the “XRPD after 7 days” value [4] was “Patterns 3 and 11” and the “XRPD after 17 days” value [4] was “Patterns 3 and 11”.
